These results are taken from publication PMC12713093, “Hepatitis E Virus ORF1 Polyprotein Harbors a Pocket‐Like Cavity That Is Vital for Virus Replication and Represents a Novel Antiviral Target” (Advanced Science, 2025).

The test deals with T1, X-RdRp protein (HEV ORF1 X to RdRp domains, forming the 'pocket-like' cavity, PC) (Hepatitis E virus US2, UniProt Q9YLR1).
T1 construct: X-RdRp fragment of ORF1 polyprotein (X 850-998, Hel 1002-1279, RdRp 1298-1765)
T1 sequence (Q9YLR1 793-1708): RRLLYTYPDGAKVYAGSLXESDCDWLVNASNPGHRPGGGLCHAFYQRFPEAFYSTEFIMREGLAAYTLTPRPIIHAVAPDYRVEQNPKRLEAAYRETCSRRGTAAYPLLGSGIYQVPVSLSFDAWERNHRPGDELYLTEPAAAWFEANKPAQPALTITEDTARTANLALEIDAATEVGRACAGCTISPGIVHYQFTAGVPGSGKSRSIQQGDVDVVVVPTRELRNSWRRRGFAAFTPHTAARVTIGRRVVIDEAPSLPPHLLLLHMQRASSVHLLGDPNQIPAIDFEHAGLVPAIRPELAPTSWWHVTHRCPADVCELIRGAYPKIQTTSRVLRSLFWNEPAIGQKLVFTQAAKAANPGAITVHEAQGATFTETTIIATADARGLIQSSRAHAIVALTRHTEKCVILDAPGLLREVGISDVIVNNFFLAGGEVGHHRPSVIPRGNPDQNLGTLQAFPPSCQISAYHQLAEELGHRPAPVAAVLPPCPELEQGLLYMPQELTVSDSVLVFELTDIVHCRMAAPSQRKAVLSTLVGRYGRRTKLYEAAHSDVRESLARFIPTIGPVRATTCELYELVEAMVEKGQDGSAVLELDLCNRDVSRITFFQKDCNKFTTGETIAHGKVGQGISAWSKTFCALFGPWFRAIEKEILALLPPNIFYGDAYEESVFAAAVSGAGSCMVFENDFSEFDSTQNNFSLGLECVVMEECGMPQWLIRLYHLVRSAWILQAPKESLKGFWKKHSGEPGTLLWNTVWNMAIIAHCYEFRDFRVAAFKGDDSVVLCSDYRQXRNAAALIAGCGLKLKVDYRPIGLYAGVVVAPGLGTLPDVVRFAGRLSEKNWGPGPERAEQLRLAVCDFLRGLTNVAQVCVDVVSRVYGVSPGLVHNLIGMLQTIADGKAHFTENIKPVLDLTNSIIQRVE
Description: SPR, Biacore 8K, CM5 chip, protein immobilised by amine coupling, […] Langmuir fit. The class given is binding. Particulars: protein refolded from inclusion bodies; site (X/RdRp pocket-like cavity) assigned by docking. For orientation: In SPR one partner is held on a chip, and binding of the other changes the refractive index at the surface.

Usually Kd stands for the concentration at which binding is half-saturated. The low end stands for higher affinity, the high end for lower affinity. Molecule `C[C@H]1CC[C@@]2(OC1)O[C@H]1C[C@H]3[C@@H]4CC=C5C[C@@H](O[C@@H]6O[C@@H](C)[C@H](O)[C@@H](O)[C@H]6O)C[C@@H](O[C@@H]6O[C@H](C)[C@H](O)[C@H](O)[C@H]6O)[C@]5(C)[C@H]4CC[C@]3(C)[C@H]1[C@@H]2C` [liriopesides B] gave an equilibrium dissociation constant (Kd) of 132 µM.
